# Molecular target: human Nav1.8 (Homo sapiens (Human), UniProt Q9Y5Y9)
# Experiment: Nav1.8 Qube automated patch-clamp assay
# Type: cell-based
# Details: Nav1.8 Qube Assay; human Nav1.8 channels stably expressed in HEK 293 cells
# Protocol: Qube® Assay Experimental Procedure
# Compounds were tested on human Nav1.8 and Nav1.5 channels stably expressed in human embryo kidney (HEK) 293 cells. Sodium current measurements on Qube® were conducted as follows: automated 384-well patch-clamp assays on the Qube® platform (Sophion Biosciences) were used to measure the inhibition of sodium flow through human Nav1.8 and Nav1.5 channels. Whole-cell voltage-clamp recordings were performed in QChips® (Sophion Biosciences) at room temperature. Nav1.8 current measurements on Qube® were obtained as follows: Nav1.8 currents were elicited with a 10 second 1 Hertz (Hz) pulse train from a holding potential of −90 millivolts (mV), delivered to the cells once per minute in the control condition (DMSO only) and after compound addition. The 1 hertz pulse train stimulation consisted of ten test pulses to 10 millivolt (mV) for 20 milliseconds (ms), each of which was followed by a 980 millisecond repolarization to −67 millivolts. At the end of the 10 second pulse train stimulation, a 5 second hyperpolarization step to −100 millivolt (mV) was used to recover Nav1.8 from fast inactivation. The peak currents elicited by the 1st and 10th test pulses were used to determine IC50 values for resting inhibition and inactivated state inhibition. Nav1.5 current measurements on Qube® were obtained as follows: Nav1.5 currents were elicited with a 20 second 3 Hertz pulse train in the control condition (DMSO only) and after compound addition. The pulse train consisted of sixty 20 millisecond test pulses to 0 millivolt from a holding potential of −80 millivolt (mV). The average peak currents elicited by the last 3 test pulses were used to determine IC50 values for Nav1.5 inhibition.
# The following buffers were used for the Qube® recordings: External buffer for Nav1.8 Qube® recording: 150 NaCl, 2 CaCl2, 5 KCl, 1 Mg Cl2, 10 HEPES, 12 Dextrose; External buffer for Qube® Nav1.5 recording: 120 N-Methyl-D-Glucamine, 40 NaCl, 1 KCl, 2.7 CaCl2, 5 HEPES, 0.5 MgCl2; and Internal buffer for Qube® recording: 120 CsF, 30 CsCl, 10 EGTA, 5 HEPES, 5 NaF, 2 MgCl2.
# For all Qube® experiments offline analysis was used to determine percent inhibition as a function of drug concentration. IC50 values were determined by fitting to the Hill equation.
# Sequence of human Nav1.8 (Q9Y5Y9 whole entry): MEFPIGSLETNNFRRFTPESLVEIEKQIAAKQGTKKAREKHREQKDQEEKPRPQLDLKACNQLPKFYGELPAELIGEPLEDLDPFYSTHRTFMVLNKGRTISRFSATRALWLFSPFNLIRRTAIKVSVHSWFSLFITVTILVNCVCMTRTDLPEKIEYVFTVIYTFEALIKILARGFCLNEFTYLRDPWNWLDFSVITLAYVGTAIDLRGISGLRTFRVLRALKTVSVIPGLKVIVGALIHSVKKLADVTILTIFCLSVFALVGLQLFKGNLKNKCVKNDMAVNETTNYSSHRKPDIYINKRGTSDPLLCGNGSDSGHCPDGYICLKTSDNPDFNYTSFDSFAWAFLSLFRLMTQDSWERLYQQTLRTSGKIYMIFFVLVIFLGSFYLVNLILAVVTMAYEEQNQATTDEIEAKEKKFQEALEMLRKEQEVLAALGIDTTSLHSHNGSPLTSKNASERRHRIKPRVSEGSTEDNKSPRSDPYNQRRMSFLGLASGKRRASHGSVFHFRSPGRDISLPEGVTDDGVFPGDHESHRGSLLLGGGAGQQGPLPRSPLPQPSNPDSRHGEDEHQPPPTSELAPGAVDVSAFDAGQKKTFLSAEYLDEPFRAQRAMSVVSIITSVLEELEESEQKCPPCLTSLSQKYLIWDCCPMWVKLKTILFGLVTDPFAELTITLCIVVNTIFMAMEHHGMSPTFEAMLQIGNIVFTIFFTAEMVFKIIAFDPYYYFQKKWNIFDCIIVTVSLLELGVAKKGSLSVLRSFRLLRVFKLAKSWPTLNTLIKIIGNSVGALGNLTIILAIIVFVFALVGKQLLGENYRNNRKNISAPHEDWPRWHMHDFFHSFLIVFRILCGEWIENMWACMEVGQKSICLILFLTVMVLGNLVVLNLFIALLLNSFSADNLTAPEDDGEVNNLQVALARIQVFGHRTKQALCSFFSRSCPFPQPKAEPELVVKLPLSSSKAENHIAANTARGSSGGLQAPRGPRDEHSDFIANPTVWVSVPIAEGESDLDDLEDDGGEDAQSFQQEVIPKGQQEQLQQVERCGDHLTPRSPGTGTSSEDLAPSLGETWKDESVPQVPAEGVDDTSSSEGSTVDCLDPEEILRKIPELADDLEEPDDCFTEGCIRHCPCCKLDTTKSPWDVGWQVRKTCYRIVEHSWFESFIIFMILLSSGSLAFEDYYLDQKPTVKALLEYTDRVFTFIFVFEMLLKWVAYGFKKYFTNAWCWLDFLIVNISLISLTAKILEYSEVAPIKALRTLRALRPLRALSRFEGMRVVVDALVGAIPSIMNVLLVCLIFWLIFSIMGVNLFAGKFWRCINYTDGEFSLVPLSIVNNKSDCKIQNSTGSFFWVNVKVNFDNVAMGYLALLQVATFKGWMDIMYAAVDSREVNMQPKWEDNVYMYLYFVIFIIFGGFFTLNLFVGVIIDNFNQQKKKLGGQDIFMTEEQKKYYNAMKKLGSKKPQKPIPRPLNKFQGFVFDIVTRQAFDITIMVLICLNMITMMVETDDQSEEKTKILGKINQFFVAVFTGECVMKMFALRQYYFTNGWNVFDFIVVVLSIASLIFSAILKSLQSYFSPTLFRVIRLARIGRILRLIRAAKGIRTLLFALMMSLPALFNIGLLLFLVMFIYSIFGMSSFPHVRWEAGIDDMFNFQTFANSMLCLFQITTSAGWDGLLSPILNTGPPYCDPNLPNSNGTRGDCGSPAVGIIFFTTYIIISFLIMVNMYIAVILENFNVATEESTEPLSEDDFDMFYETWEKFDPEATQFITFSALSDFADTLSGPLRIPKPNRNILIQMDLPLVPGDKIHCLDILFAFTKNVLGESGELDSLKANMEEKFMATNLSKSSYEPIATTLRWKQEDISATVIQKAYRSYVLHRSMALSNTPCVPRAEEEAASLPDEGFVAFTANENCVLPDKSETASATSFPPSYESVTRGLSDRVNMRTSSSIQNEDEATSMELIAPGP
row,SMILES,IC50
1,"COc1ccc(C(=O)Nc2cccc(C(N)=O)c2)c(N2CCCC(F)(F)CC2)n1 [Example 18, N-(3-carbamoyl-phenyl)-2-(4,4-difluoroazepan-1-yl)-6-methoxy-pyridine-3-carboxamide]",52 nM
2,"NS(=O)(=O)c1cccc(NC(=O)c2cc(Br)cnc2N2CCCCCC2)c1 [Example 32, 2-(azepan-1-yl)-5-bromo-N-(3-sulfamoyl-phenyl)pyridine-3-carboxamide]",24 nM
3,"NS(=O)(=O)c1cccc(NC(=O)c2cc(C(F)(F)F)cnc2N2CC(C(F)(F)F)C2)c1 [Example 58, N-(3-sulfamoylphenyl)-5-(trifluoromethyl)-2-[3-(trifluoromethyl)-azetidin-1-yl]pyridine-3-carboxamide]",616 nM
4,"NS(=O)(=O)c1cc(F)cc(NC(=O)c2cc(C(F)(F)F)cnc2N2CCCCC2)c1 [Example 114, N-(3-fluoro-5-sulfamoyl-phenyl)-2-(1-piperidyl)-5-(tri-fluoromethyl)-pyridine-3-carboxamide]",242 nM
5,"NS(=O)(=O)c1cccc(NC(=O)c2cc(C(F)(F)F)cnc2N2CCO[C@@H](C(F)(F)F)C2)c1 [Example 141, N-(3-sulfamoylphenyl)-5-(trifluoromethyl)-2-[(2R)-2-(trifluoro-methyl)morpholin-4-yl]pyridine-3-carboxamide]",553 nM
6,"NS(=O)(=O)c1cccc(NC(=O)c2cc(C(F)(F)F)cnc2N2CCC(F)C2)c1 (centres unmarked) [Example 62, 2-(3-fluoropyrrolidin-1-yl)-N-(3-sulfamoyl-phenyl)-5-(trifluoro-methyl)pyridine-3-carboxamide]",1830 nM
7,"NS(=O)(=O)c1cccc(NC(=O)c2cc(C(F)(F)F)cnc2N2C[C@H]3CC[C@H]3C2)c1 [Example 134, 2-((1R,5S)-3-azabicyclo[3.2.0]heptan-3-yl]-N-(3-sulfamoyl-phenyl)-5-(trifluoro-methyl)-pyridine-3-carboxamide]",25 nM
8,"NS(=O)(=O)c1cccc(NC(=O)c2cc(C(F)(F)F)cnc2N2CCCC(O)CC2)c1 (centres unmarked) [Example 65, 2-(4-hydroxyazepan-1-yl)-N-(3-sulfamoyl-phenyl)-5-(trifluoro-methyl)pyridine-3-carboxamide]",2210 nM
9,"NC(=O)c1cccc(NC(=O)c2ccc(C(F)(F)F)nc2N2CCC3(CC2)CC3)c1 [Example 83, N-(3-carbamoyl-phenyl)-2-(6-azaspiro[2.5]octan-6-yl)-6-(trifluoro-methyl)-nicotinamide]",180 nM
10,"NS(=O)(=O)c1cccc(NC(=O)c2cc(OC(F)F)cnc2N2CCCC(F)(F)CC2)c1 [Example 172, 2-(4,4-difluoroazepan-1-yl)-5-(difluoromethoxy)-N-(3-sulfamoylphenyl)nicotinamide]",7.5 nM
11,"NS(=O)(=O)c1cccc(NC(=O)c2cc(C(F)(F)F)cnc2N2CC3CCC(C2)O3)c1 [Example 52, 2-(8-oxa-3-azabicyclo[3.2.1]octan-3-yl)-N-(3-sulfamoyl-phenyl)-5-(trifluoro-methyl)pyridine-3-carboxamide]",301 nM
12,"C[C@H]1CN(c2ncc(C(F)(F)F)cc2C(=O)Nc2cccc(S(N)(=O)=O)c2)C[C@H](C(F)(F)F)O1 [Example 145, 2-[(2S,6R)-2-methyl-6-(trifluoromethyl)morpholin-4-yl]-N-(3-sulfamoyl-phenyl)-5-(trifluoro-methyl)pyridine-3-carboxamide]",15 nM
13,"NS(=O)(=O)c1cccc(NC(=O)c2ccc(F)nc2N2CCCCCC2)c1 [Example 93, 2-(azepan-1-yl)-6-fluoro-N-(3-sulfamoyl-phenyl)pyridine-3-carboxamide]",59 nM
14,"NS(=O)(=O)c1cccc(NC(=O)c2cc(F)c(Cl)nc2N2CCCCCC2)c1 [Example 92, 2-(azepan-1-yl)-6-chloro-5-fluoro-N-(3-sulfamoylphenyl)-pyridine-3-carboxamide]",31 nM
15,"C[C@H]1CN(c2ncc(C(F)(F)F)cc2C(=O)Nc2cccc(S(N)(=O)=O)c2)C[C@@H](C(F)(F)F)O1 [Example 148, 2-[(2S,6S)-2-methyl-6-(trifluoromethyl)-morpholin-4-yl]-N-(3-sulfamoylphenyl)-5-(trifluoromethyl) pyridine-3-carboxamide]",113 nM
16,"COC1CCCN(c2ncc(C(F)(F)F)cc2C(=O)Nc2cccc(S(N)(=O)=O)c2)CC1 (centres unmarked) [Example 49, 2-(4-methoxyazepan-1-yl)-N-(3-sulfamoyl-phenyl)-5-(trifluoro-methyl)pyridine-3-carboxamide]",186 nM

row,SMILES,IC50
1,"NS(=O)(=O)c1cccc(NC(=O)c2cc(C(F)(F)F)cnc2N2CCCC(F)(F)C2)c1 [Example 51, 2-(3,3-difluoro-1-piperidyl)-N-(3-sulfamoylphenyl)-5-(trifluoromethyl)-pyridine-3-carboxamide]",244 nM
2,"COc1nc(N2CCCCCC2)c(C(=O)Nc2cccc(S(N)(=O)=O)c2)cc1C [Example 155, 2-(azepan-1-yl)-6-methoxy-5-methyl-N-(3-sulfamoylphenyl)nicotinamide]",32 nM
3,"NS(=O)(=O)c1cccc(NC(=O)c2cc(C(F)(F)F)cnc2N2CCC(C(F)F)CC2)c1 [Example 50, 2-[4-(difluoromethyl)-1-piperidyl]-N-(3-sulfamoylphenyl)-5-(trifluoromethyl)-pyridine-3-carboxamide]",239 nM
4,"NS(=O)(=O)c1c(F)ccc(NC(=O)c2cc(C(F)(F)F)cnc2N2CCC(F)(F)CC2)c1F [Example 28, N-(2,4-difluoro-3-sulfamoylphenyl)-2-(4,4-difluoropiperidin-1-yl)-5-(trifluoromethyl)nicotinamide]",211 nM
5,"COC(=O)C1CCN(c2ncc(C(F)(F)F)cc2C(=O)Nc2cccc(S(N)(=O)=O)c2)CC1 [Example 61, methyl 1-[3-[(3-sulfamoylphenyl)carbamoyl]-5-(trifluoro-methyl)-2-pyridyl]-piperidine-4-carboxylate]",1620 nM
6,"NS(=O)(=O)c1cccc(NC(=O)c2cnc(C3CC3)nc2N2CCCC(F)(F)CC2)c1 [Example 180, 2-cyclopropyl-4-(4,4-difluoroazepan-1-yl)-N-(3-sulfamoylphenyl)pyrimidine-5-carboxamide]",24 nM
7,"COC(=O)C1CCCN(c2ncc(C(F)(F)F)cc2C(=O)Nc2cccc(S(N)(=O)=O)c2)CC1 (centres unmarked) [Example 48, methyl 1-[3-[(3-sulfamoylphenyl)-carbamoyl]-5-(tri-fluoromethyl)-2-pyridyl]azepane-4-carboxylate]",161 nM
8,"NS(=O)(=O)c1cccc(NC(=O)c2cc(C(F)(F)F)cnc2N2CCC(F)(F)CC2)c1 [Example 1, 2-(4,4-difluoropiperidin-1-yl)-N-(3-sulfamoylphenyl)-5-(trifluoromethyl)nicotinamide]",47 nM
9,"NS(=O)(=O)c1cccc(NC(=O)c2ccc(OC(F)(F)F)nc2N2CCCCC2)c1 [Example 84, 2-(piperidin-1-yl)-N-(3-sulfamoylphenyl)-6-(trifluoromethoxy)nicotinamide]",248 nM
10,"N#Cc1ccc(NC(=O)c2cc(C(F)(F)F)cnc2N2CCCCCC2)cc1 [Example 22, 2-(azepan-1-yl)-N-(4-cyanophenyl)-5-(trifluoromethyl)pyridine-3-carboxamide]",470 nM
11,"Cc1cc(C(=O)Nc2cccc(C(N)=O)c2)c(N2CCCCCC2)nc1C [Example 37, 2-(azepan-1-yl)-N-(3-carbamoylphenyl)-5,6-dimethyl-pyridine-3-carboxamide]",106 nM
12,"O=C(Nc1cccc(S(=O)(=O)N2CCCC2)c1)c1cc(C(F)(F)F)cnc1N1CCCCCC1 [Example 24, 2-(azepan-1-yl)-N-(3-pyrrolidin-1-yl-sulfonylphenyl)-5-(trifluoromethyl)-pyridine-3-carboxamide]",4430 nM
13,"CS(=O)(=O)c1cccc(NC(=O)c2cc(C(F)(F)F)cnc2N2CCC3(CC3)C(F)(F)C2)c1 [Example 101, 2-(8,8-difluoro-6-azaspiro[2.5]octan-6-yl)-N-(3-methyl-sulfonylphenyl)-5-(trifluoromethyl) pyridine-3-carboxamide]",260 nM
14,"Cc1ccnc(N2CCCCCC2)c1C(=O)Nc1cccc(S(N)(=O)=O)c1 [Example 175, 2-(azepan-1-yl)-4-methyl-N-(3-sulfamoyl-phenyl)pyridine-3-carboxamide]",290 nM
15,"NS(=O)(=O)c1cccc(NC(=O)c2cc(C(F)(F)F)cnc2N2CCCC3(CC2)CC3)c1 [Example 79, 2-(6-azaspiro[2.6]nonan-6-yl)-N-(3-sulfamoyl-phenyl)-5-(trifluoro-methyl)nicotinamide]",10 nM
16,"NS(=O)(=O)c1cccc(NC(=O)c2cc(C(F)(F)F)cnc2N2C[C@@H]3[C@H](C2)C(F)(F)C3(F)F)c1 [Example 133, N-(3-sulfamoylphenyl)-2-[(1R,5S)-6,6,7,7-tetrafluoro-3-azabicyclo-[3.2.0]heptan-3-yl]-5-(trifluoromethyl)-pyridine-3-carboxamide]",21 nM

# Reference: US12344595B2, “2-amino-n-phenyl-nicotinamides as NAV1.8 inhibitors” (Merck Sharp & Dohme LLC, priority 2018, dated 2025)
